Data on two compounds can be found in patent US20150150765A1, “VOLATILE OIL FOR COSMETICS” (NOF Corporation, priority 2012, published 2015).

A short description of series [1]: order of volatility, sample spread on filter paper and dried. Format: physicochemical. Conditions: 0.1 g on filter paper of 110 mm diameter; rank by speed to be completely dry (1 = fastest). Here is the method: It is noted that for the order of volatility in Table 1, 0.1 g of each sample was spread on a filter paper of 110 mm in diameter, and the weight was measured after drying for two hours. Ranking was based on the order of the speed that it took the samples to be completely dry and 0 g in weight.

The nature of series [2]: evaluation of smoothness of hair (MIU friction resistance of hair surface). Further details: species or system human. Conditions: coefficient of friction of bleached hair, hair untreated with oil = 100%; below 100% = improvement; 20° C., 40% humidity. Here is the method: (§1) [Evaluation of Smoothness]
With the volatile oil for hair cosmetics of the present invention, coefficients of friction were measured by the method shown below, and the improvement of smoothness, when applied to hair, was evaluated.
Method of Evaluating Smoothness (Improvement after Treating Bleached Hair with Each Sample)
(Evaluation) MIU (Resistance: μ): Friction resistance of hair surface (Measuring Equipment) Friction tester (from Kato Tech Co., Ltd.) (Measuring Conditions) Measurement environment at 20° C.; 40% of Humidity; Constant temperature and humidity chamber; Number of hair for measurement: ten; Contactor: Silicon rubber; Load: 25 gf (Hair Employed) Bleached healthy human hair that was purchased
(§2) (Applying Various Oils and Preparing Tests)
(§3) (1) One hair is picked out of the bundle of human hair. Each sample is dropped onto an index finger cushion from a syringe, and is blended with a thumb.
(§4) (2) The picked hair is pinched between the index finger and the thumb, and is coated with a sample from its root to the end.
(3) After the sample is coated, excess sample is wiped off with a waste cloth made of paper (Trade Name: Kim Wipes). […]
(Assessment) With the coefficient of friction of hair untreated with oil as 100%, smoothness is evaluated after being treated with each sample. […]

Series [3] is described as follows: hair tensile strength. The following applies: breaking load of healthy human hair, untreated with oil (blank) = 100%; above 100% = improvement; 25° C. As for the experimental part:
(Measuring Equipment) FUDOH RHEO METER RTC from Rheotech Co., Ltd. (Measuring Condition) Measurement environment: Inside constant temperature chamber at 25° C.
(Hair Employed) Healthy Human Hair
as §2
Beforehand, a bundle of unbleached healthy hair for measurement is placed in a constant temperature chamber for one day.
as §3, §4
(3) After the sample is coated, excess oil is wiped off with a waste cloth made of paper (Trade Name: Kim Wipes).
(4) After ten human hairs are treated with each sample, hair diameter is measured with a diameter.
(5) The hair is fixed with a jag of an equipment, and is given a load by lowering a base onto which the hair is fixed.
(6) The load is recorded when the hair is broken by the load.
(Assessment) With the tensile strength of hair untreated with oil (blank) as 100%, tensile strength was evaluated after being treated with each sample. If there is an improvement in comparison with the blank, the number would be higher than 100%.

Series [4] can be described thus: evaluation of smoothness of skin (MIU friction resistance of skin surface). Type of series: in vivo. Conditions: coefficient of friction of skin, inside upper arm, before oil treatment = 100%; below 100% = improvement. Here is the method:
as §1
With the volatile oil for external preparations for skin of the present invention, coefficients of friction were measured by the following method, and the improvement of smoothness when applied to skin was evaluated.
Method of Evaluating Smoothness (Improvement after Treating Skin with Each Sample)
(Evaluation) MIU (Resistance: μ): Friction resistance of skin surface (Measuring Equipment) Friction tester (from Kato Tech Co., Ltd.) (Measuring Conditions) Measurement environment at 20° C.; 40% of Humidity; Constant temperature and humidity chamber; Measurement site: Inside upper arm; Contactor: Silicon rubber; Load: 25 gf
as §2
(§5) (1) The measurement site of a subject is washed with neutral detergent and tap water and then dried. The subject goes in the constant temperature and humidity chamber 30 min. before measurement to allow the measurement site to get used to the environment inside the chamber.
(2) Coefficients of friction at sites to be applied are measured before applying samples. […]
(4) After the samples are applied, the coefficients of friction at applied sites are measured every thirty minutes.
(Assessment) With the coefficient of friction at measurement sites before oil treatment as 100%, smoothness was evaluated after being treated with each sample. […]

Series [5] in a line: evaluation of moisture retention (amount of moisture in stratum corneum, SKICON-200EX). Type of series: in vivo. Conditions: inside human forearm, two hours after applying 10 μL; blank = 100%; above 100% = improvement. As for the experimental part: [Evaluation of Moisture Retention]
With the volatile oil for external preparations for skin of the present invention, the amount of moisture in a stratum corneum was measured by the method shown below, and the amount of moisture (moisture retention) was evaluated.
(Measuring Equipment) SKICON-200EX (from I.B.S. Co., Ltd.)
(§6) (Measuring Conditions) Temperature of 20° C., Humidity of 40%
(Testing Method) Samples are applied inside a human forearm, and the amount of moisture is measured after two hours.
as §2, §5
(2) Before applying samples, the amount of moisture is measured at a site to be applied that is marked in a circle 1 cm in diameter.
(3) Samples are dropped by 10 μL with a micropipette onto a measurement site that is marked in a circle with 1 cm in diameter, and are applied to skin at the marking site.
(4) The amount of moisture is measured at the measurement site two hours after being applied.
(Assessment) With the amount of water at measurement sites with no oil treatment (blanks) as 100%, the amount of moisture was evaluated after being treated with each sample. […]

Series [6] is described as follows: evaluation of barrier property (evaporated water quantity, Tewameter). Type of series: in vivo. Conditions: inside human forearm, two hours after applying 10 μL; blank = 100%; below 100% = improvement. As for the experimental part: [Evaluation of Barrier Property]
With the volatile oil for external preparations for skin of the present invention, an evaporated water quantity in a stratum corneum was measured by the method shown below, and the evaporated water quantity (barrier property) was evaluated.
(Measuring Equipment) Tewameter™210 (from Courage+Kahazaka Co., Ltd.)
as §6
(Testing Method) Samples are applied inside a human forearm, and an evaporated water quantity is measured after two hours.
as §2, §5
(2) Before applying samples, an evaporated water quantity is measured at a site to be applied that is marked in a circle 1 cm in diameter. […]
(4) The evaporated water quantity is measured at the measurement site two hours after being applied.
(Assessment) With the evaporated water quantity at measurement sites with no oil treatment (blanks) as 100%, the evaporated water quantity was evaluated after being treated with each sample. […]

The nature of series [7]: evaluation of skin viscoelasticity (Cutometer). Type of series: in vivo. Conditions: inside human forearm, two hours after applying 10 μL; blank = 100%; above 100% = improvement. Here is the method:
[Evaluation of Skin Viscoelasticity]
With the volatile oil for external preparations for skin of the present invention, skin viscoelasticity was measured by the method shown below, and the skin viscoelasticity was evaluated.
(Measuring Equipment) Cutometer (from I.B.S. Co., Ltd.)
as §6
(Testing Method) Samples are applied inside a human forearm, and viscoelasticity is measured after two hours.
as §2, §5
(2) Before applying samples, viscoelasticity is measured at a site to be applied that is marked in a circle with 1 cm in diameter.
(3) Samples are dropped by 10 μL with a micropipette onto a measurement site that is marked in a circle with 1 cm in diameter, and are applied, to skin at the marking site.
(4) The viscoelasticity is measured at the measurement site two hours after being applied.
(Assessment) With the […] at measurement sites with no oil treatment (blanks) as 100%, skin viscoelasticity was evaluated after being treated with each sample. […]

On to `C[Si]1(C)O[Si](C)(C)O[Si](C)(C)O[Si](C)(C)O[Si](C)(C)O1` [compound 1], for which, in series [1], the order of volatility turned out to be 3. Also, the “smoothness (%)” value is given as 83% in series [2] and 108% in series [4]. Besides, in series [3], the “tensile strength (%)” value is 120%. Also, the “water quantity in stratum corneum (%)” value in series [5] is 120%. Moreover, in series [6], the “evaporated water quantity (%)” value amounted to 106%. The “skin viscoelasticity (%)” value in series [7] is 95%.
As to `CC(CC(C)(C)C)CC(C)(C)C` [compound 2, 2,2,4,6,6-pentamethylheptane], in series [1], the order of volatility is recorded as 1. Moreover, the “smoothness (%)” value in series [2] was determined as 78%; in series [4] it was 104%. Besides, in series [3], the “tensile strength (%)” value was 125%. Moreover, the “water quantity in stratum corneum (%)” value in series [5] came to 112%. Moreover, the “evaporated water quantity (%)” value in series [6] came to 105%. In series [7], the “skin viscoelasticity (%)” value stood at 97%.
